# Results from ChEMBL document CHEMBL3351724, “Human α1-adrenoceptor subtype selectivity of substituted homobivalent 4-aminoquinolines” (Bioorg Med Chem, 2014).
# How the values were obtained:
# [1] = target: T1, Alpha-1A adrenergic receptor (Homo sapiens, UniProt P35348); experiment: Displacement of [3H]-prazosin from human alpha1A adrenergic receptor transfected in COS1 cells; assay type: cell-based, COS-1
# T1 sequence (P35348 whole entry): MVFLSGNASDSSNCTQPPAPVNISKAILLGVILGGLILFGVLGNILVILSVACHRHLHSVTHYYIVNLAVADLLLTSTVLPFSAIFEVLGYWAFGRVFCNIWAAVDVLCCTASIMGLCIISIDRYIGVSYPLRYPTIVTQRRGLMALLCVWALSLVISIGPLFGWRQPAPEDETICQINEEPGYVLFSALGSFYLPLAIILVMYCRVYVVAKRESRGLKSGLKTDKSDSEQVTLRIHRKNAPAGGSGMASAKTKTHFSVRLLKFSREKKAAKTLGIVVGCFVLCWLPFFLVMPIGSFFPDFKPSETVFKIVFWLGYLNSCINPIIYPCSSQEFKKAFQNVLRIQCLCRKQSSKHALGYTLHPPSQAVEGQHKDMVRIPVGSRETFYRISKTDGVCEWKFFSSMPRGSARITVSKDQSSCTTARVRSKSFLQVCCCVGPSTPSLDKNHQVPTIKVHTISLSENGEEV
# [2] = target: T1, Alpha-1A adrenergic receptor; experiment: Binding affinity to human alpha1A adrenergic receptor transfected in COS1 cells assessed as compound required to occupy 50% of receptor; assay type: cell-based, COS-1
# [3] = target: T2, Alpha-1B adrenergic receptor (Homo sapiens, UniProt P35368); experiment: Displacement of [3H]-prazosin from human alpha1B adrenergic receptor transfected in COS1 cells; assay type: cell-based, COS-1
# T2 sequence (P35368 whole entry): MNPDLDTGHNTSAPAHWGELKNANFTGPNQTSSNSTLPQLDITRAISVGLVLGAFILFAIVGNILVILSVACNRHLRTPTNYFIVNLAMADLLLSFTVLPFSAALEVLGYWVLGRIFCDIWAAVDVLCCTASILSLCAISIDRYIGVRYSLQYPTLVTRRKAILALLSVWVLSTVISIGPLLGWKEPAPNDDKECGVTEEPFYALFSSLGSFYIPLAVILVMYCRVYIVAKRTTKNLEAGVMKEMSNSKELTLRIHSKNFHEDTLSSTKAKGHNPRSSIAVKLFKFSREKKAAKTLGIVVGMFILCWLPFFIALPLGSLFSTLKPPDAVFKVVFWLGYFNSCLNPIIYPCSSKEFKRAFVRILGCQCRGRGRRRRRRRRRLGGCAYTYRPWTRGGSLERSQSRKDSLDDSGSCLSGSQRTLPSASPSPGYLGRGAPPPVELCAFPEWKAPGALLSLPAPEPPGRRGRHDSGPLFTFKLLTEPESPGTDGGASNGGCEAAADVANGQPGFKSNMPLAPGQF
# [4] = target: T2, Alpha-1B adrenergic receptor; experiment: Binding affinity to human alpha1B adrenergic receptor transfected in COS1 cells assessed as compound required to occupy 50% of receptor; assay type: cell-based, COS-1
# [5] = target: T3, Alpha-1D adrenergic receptor (Homo sapiens, UniProt P25100); experiment: Displacement of [3H]-prazosin from human alpha1D adrenergic receptor transfected in COS1 cells; assay type: cell-based, COS-1
# T3 sequence (P25100 whole entry): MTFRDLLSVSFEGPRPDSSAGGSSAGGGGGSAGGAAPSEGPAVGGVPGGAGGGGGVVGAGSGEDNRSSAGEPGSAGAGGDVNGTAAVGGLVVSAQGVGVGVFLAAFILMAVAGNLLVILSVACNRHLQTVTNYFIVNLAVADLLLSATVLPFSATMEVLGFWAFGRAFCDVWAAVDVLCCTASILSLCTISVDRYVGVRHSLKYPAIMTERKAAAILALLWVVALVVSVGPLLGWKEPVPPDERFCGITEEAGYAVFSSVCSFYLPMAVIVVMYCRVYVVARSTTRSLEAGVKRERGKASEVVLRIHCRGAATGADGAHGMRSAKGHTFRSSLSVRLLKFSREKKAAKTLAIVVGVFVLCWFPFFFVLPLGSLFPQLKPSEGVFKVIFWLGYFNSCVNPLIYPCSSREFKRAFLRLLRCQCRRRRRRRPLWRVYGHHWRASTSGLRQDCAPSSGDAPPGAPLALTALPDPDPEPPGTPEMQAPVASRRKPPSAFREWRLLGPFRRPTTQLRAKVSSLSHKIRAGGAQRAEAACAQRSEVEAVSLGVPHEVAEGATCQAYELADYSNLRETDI
# [6] = target: T3, Alpha-1D adrenergic receptor; experiment: Binding affinity to human alpha1D adrenergic receptor transfected in COS1 cells assessed as compound required to occupy 50% of receptor; assay type: cell-based, COS-1
# [7] = target: T4, 5-hydroxytryptamine receptor 1A (Homo sapiens, UniProt P08908); experiment: Displacement of [3H]8-OH-DPAT from human 5HT1A receptor transfected in COS1 cells; assay type: cell-based, COS-1
# T4 sequence (P08908 whole entry): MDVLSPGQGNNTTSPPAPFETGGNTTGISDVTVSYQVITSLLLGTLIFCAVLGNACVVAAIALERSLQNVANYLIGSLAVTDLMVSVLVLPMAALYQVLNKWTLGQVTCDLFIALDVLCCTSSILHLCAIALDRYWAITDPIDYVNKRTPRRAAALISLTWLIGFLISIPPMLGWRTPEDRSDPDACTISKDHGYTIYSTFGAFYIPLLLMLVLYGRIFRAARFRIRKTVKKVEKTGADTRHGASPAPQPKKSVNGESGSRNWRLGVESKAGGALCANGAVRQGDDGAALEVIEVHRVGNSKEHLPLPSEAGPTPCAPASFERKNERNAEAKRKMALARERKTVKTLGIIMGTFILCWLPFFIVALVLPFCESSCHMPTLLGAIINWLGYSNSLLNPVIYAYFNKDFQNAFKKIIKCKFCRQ
# [8] = target: T4, 5-hydroxytryptamine receptor 1A; experiment: Binding affinity to human 5HT1A receptor transfected in COS1 cells assessed as compound required to occupy 50% of receptor; assay type: cell-based, COS-1
# Homo sapiens [9] = species on record: Homo sapiens; experiment: Selectivity ratio of Ki for human alpha1B adrenergic receptor to Ki for human alpha1A adrenergic receptor
# Homo sapiens [10] = species on record: Homo sapiens; experiment: Selectivity ratio of Ki for human alpha1D adrenergic receptor to Ki for human alpha1A adrenergic receptor
# Homo sapiens [11] = species on record: Homo sapiens; experiment: Selectivity ratio of Ki for human 5HT1A receptor to Ki for human alpha1A adrenergic receptor
Ki [1] [nM],Ki [2] [nM],Ki [3] [nM],Ki [4] [nM],Ki [5] [nM],Ki [6] [nM],Ki [7] [nM],Ki [8] [nM],Ratio Ki (Homo sapiens [9]),Ratio Ki (Homo sapiens [10]),Ratio Ki (Homo sapiens [11]),SMILES
316,316,148,148,372,372,1380,1380,,,,COc1ccc2nccc(NCCCCCCCNc3ccnc4ccc(OC)cc34)c2c1
74.1,74,155,155,759,759,603,603,,,,COc1cccc2c(NCCCCCCCNc3ccnc4c(OC)cccc34)ccnc12
257,257,34.7,35,229,229,2820,2820,,,,COc1ccc2c(NCCCCCCCNc3ccnc4cc(OC)ccc34)ccnc2c1
195,195,324,324,2000,2000,3090,3090,,,,COc1cccc2c(NCCNc3ccnc4c(OC)cccc34)ccnc12

# The remaining lines, values behind:
SMILES,Ki [1] [nM],Ki [2] [nM],Ki [3] [nM],Ki [4] [nM],Ki [5] [nM],Ki [6] [nM],Ki [7] [nM],Ki [8] [nM],Ratio Ki (Homo sapiens [9]),Ratio Ki (Homo sapiens [10]),Ratio Ki (Homo sapiens [11])
c1ccc2c(NCCCCCCCNc3ccnc4ccccc34)ccnc2c1,126,126,148,148,309,309,832,832,,,
c1ccc2c(NCCNc3ccnc4ccccc34)ccnc2c1,26.3,26,28.2,28,331,331,2290,2290,,,
Cc1ccc2nccc(NCCCCCCCNc3ccnc4ccc(C)cc34)c2c1,617,617,151,151,479,479,1100,1100,,,
Cc1ccc2c(NCCNc3ccnc4cc(C)ccc34)ccnc2c1,120,120,47.9,48,204,204,3470,3470,,,
Cc1cccc2c(NCCNc3ccnc4c(C)cccc34)ccnc12,7.41,7,39.8,40,479,479,1170,1170,6,68,168
Cc1ccc2c(NCCCCCCCNc3ccnc4cc(C)ccc34)ccnc2c1,112,112,51.3,51,490,490,1260,1260,,,
Cc1ccc2nccc(NCCNc3ccnc4ccc(C)cc34)c2c1,135,135,19.1,19,490,490,617,617,,,
COc1ccc2c(NCCNc3ccnc4cc(OC)ccc34)ccnc2c1,69.2,69,50.1,50,214,214,891,891,,,
